Laboratory results taken from PMC11149917, “Translational and Therapeutic Evaluation of RAS-GTP Inhibition by RMC-6236 in RAS-Driven Cancers” (Cancer Discovery, 2024).

Key:
[1] = tested on: DUSP6 mRNA in NCI-H2122 xenograft tumors; experiment: In vivo PD by DUSP6 qPCR; parameters: species or system mouse
Description: (§1) Tumor-bearing animals were randomized and assigned into groups (n = 1–10/group). The vehicle at 10 mL/kg or RMC-6236 at indicated doses was administered via oral gavage daily, and animals were treated for 28 days, or up to 90 days if PFS was being assessed. […] For single-dose PKPD study, mice were randomized and assigned into groups (n = 3/dose/time point). A single dose of RMC-6236 was administered orally at either 3, 10, or 25 mg/kg. Blood and tissues, including the tumor, brain, colon, ear skin, and muscle, were harvested at indicated time points. Whole blood was collected in K2EDTA Microtainer tubes, incubated for 5 minutes, and snap-frozen in liquid nitrogen. The tissue was either fixed in 10% formalin or snap-frozen in liquid nitrogen for further analysis.
RNA was extracted from at least 20 mg of tissue using an RNeasy Mini Kit (Qiagen, 74104) and a High-Throughput Tissue grinder following the manufacturer's protocol. Reverse transcription was carried out using High-Capacity cDNA Reverse Transcription Kit (ABI, 4368814) according to the manufacturer's protocol. The cDNA product was used for qPCR analysis using TaqMan Gene-Expression Master Mix (ABI, 4369016). TaqMan primer probes specific to DUSP6 (human—Hs00737962_m1, murine—Mm00518185_m1, FAM-MGB) and 18S (RNA18S1; human—Hs99999901_s1, murine—Mm03928990_g1, FAM-MGB, used as an internal control gene) were used to detect the levels from each sample in duplicates using a 10 µL final reaction volume in a 384-well clear optical reaction plate. For qPCR, Ct values of DUSP6 and 18S were obtained for analysis. DUSP6 Ct value was normalized to 18S, and then the mean relative mRNA expression levels of each group were normalized to the vehicle control group. Values were plotted as relative change in mRNA expression compared with vehicle. Means ± SEM were shown.

[2] = tested on: NCI-H2122 (KRAS^G12C/G12C, NSCLC) xenograft; experiment: Subcutaneous xenograft antitumor activity; type: in vivo, mouse; settings: NCI-H2122 (25 mg/kg)
Description: (§2) To generate subcutaneous CDX, each mouse was inoculated at the right flank with tumor cells (2 × 10^6 − 1 × 10^7) in 100 to 200 µL of media/PBS Supplemented with Matrigel. Treatments were initiated when average tumor volume reached 130 to 200 mm^3 for tumor growth evaluation and 350 to 650 mm^3 for single-dose pharmacokinetic/pharmacodynamic (PK/PD). Tumor diameter was measured in two dimensions using a digital caliper, and the tumor volume in mm^3 was calculated using the formula: Volume = ((width)^2 × length)/2. Mice in the study were weighed and tumors were measured twice weekly.
as §1
(§3) In tumor volume plots, the average tumor volume of each group was plotted over the course after implantation (except for PDX models, where the x-axis started on the first day of treatment). Control and RMC-6236 groups were compared by two-way repeated-measures ANOVA on the last measurement day of the control group. Percentage change in body weight for each animal on a given day was determined as [(body weight on test article administration end date/body weight on test article administration start date) −1] × 100. The percentage mean tumor volume change from baseline was graphed in the waterfall plots. The mRECIST score was determined based on % mean tumor volume change, mCR is more than 80% regression, mPR is between 30% and 80% regression, mSD is between 30% growth and 30% regression, mPD is more than 30% growth. Progression is defined as tumor volume doubling from baseline and represented with Kaplan–Meier plots. Log-rank test was used to compare vehicle control with treatment groups. Cox Proportional Hazards models were used to estimate hazard ratios between vehicle control and treatment groups. Tumor relapse was defined here as models that were considered mPR or mCR at the response calling date and then rebounded from mean tumor volume regressions to either stable disease or progression when dosed long-term (more than 60 days).

[3] = tested on: HPAC (KRAS^G12D/WT, PDAC) xenograft; experiment: Subcutaneous xenograft antitumor activity; type: in vivo, mouse; settings: HPAC (25 mg/kg)
Description: as §2, §1, §3

[4] = tested on: NCI-H358 (KRAS^G12C/WT, NSCLC) xenograft; experiment: Subcutaneous xenograft antitumor activity; type: in vivo, mouse; settings: NCI-H358 (25 mg/kg)
Description: as §2, §1, §3

[5] = tested on: KP-4 (KRAS^G12D/WT, PDAC) xenograft; experiment: Subcutaneous xenograft antitumor activity; type: in vivo, mouse; settings: KP-4 (25 mg/kg)
Description: as §2, §1, §3

[6] = tested on: Capan-2 (KRAS^G12V/WT, PDAC) xenograft; experiment: Subcutaneous xenograft antitumor activity; type: in vivo, mouse; settings: for Tumor Volume: Capan-2 Tumor Volume Data
Description: as §2, §1, §3

[7] = tested on: NCI-H441 (KRAS^G12V/WT, NSCLC) xenograft; experiment: Subcutaneous xenograft antitumor activity; type: in vivo, mouse; settings: for Tumor Volume: NCI-H441 Tumor Volume Data, dose every 24 h
Description: as §2, §1, §3

Question: How did the “DUSP6 mRNA(% normalized to control)” value ([1]; NCI-H2122 (25 mg/kg x 7d), 1h) turn out when `CCn1c(-c2cc(N3CCN(C)CC3)cnc2[C@H](C)OC)c2c3cc(ccc31)-c1csc(n1)C[C@H](NC(=O)[C@H]1C[C@@H]1C)C(=O)N1CCC[C@H](N1)C(=O)OCC(C)(C)C2` [RMC-6236] was run?
Answer: 0.8%

Question: And the “DUSP6 mRNA(% normalized to control)” value ([1]; NCI-H2122 (25 mg/kg x 7d), 8h)?
Answer: 0.337%

Question: What about the “DUSP6 mRNA(% normalized to control)” value ([1]; NCI-H2122 (25 mg/kg x 7d), 24h) of the same molecule?
Answer: 0.8%

Question: What about the “DUSP6 mRNA(% normalized to control)” value ([1]; NCI-H2122 (25 mg/kg x 7d), 48h) of the same molecule?
Answer: 6.3%

Question: And the “DUSP6 mRNA(% normalized to control)” value ([1]; NCI-H2122 (25 mg/kg), 1h)?
Answer: 20.6%

Question: What about the “DUSP6 mRNA(% normalized to control)” value ([1]; NCI-H2122 (25 mg/kg), 8h) of the same molecule?
Answer: 0.187%

Question: And the “DUSP6 mRNA(% normalized to control)” value ([1]; NCI-H2122 (25 mg/kg), 24h)?
Answer: 3.4%

Question: And the “DUSP6 mRNA(% normalized to control)” value ([1]; NCI-H2122 (25 mg/kg), 48h)?
Answer: 10.6%

Question: And the “Anti-Tumor Activity, %TGI” value [2]?
Answer: 99.64 %TGI

Question: And the “Anti-Tumor Activity (% regression)” value [3]?
Answer: 93%

Question: And the “Anti-Tumor Activity (% regression)” value [4]?
Answer: 92.97%

Question: And the “Anti-Tumor Activity (% regression)” value ([5]; d14)?
Answer: 48.2%

Question: What about the “Anti-Tumor Activity, %TGI” value ([5]; d28) of the same molecule?
Answer: 89.2 % TGI

Question: What about the “Anti-Tumor Activity (% regression)” value ([6]; Capan-2 (10 mg/kg)) of the same molecule?
Answer: 13%

Question: What about the “Anti-Tumor Activity (% regression)” value ([6]; Capan-2 (25 mg/kg)) of the same molecule?
Answer: 53.0%

Question: What about the mean tumor regression ([6]; Capan-2, 10 mg/kg daily, 4 weeks) of the same molecule?
Answer: 13%

Question: What about the “Tumor Volume” value ([6]; 10mg/kg_Capan2, dose every 24 h, 0 h (baseline)) of the same molecule?
Answer: 166.375 mm^3

Question: And the “Tumor Volume” value ([6]; 10mg/kg_Capan2, dose every 24 h, 48 h)?
Answer: 174.875 mm^3

Question: What about the “Tumor Volume” value ([6]; 10mg/kg_Capan2, dose every 24 h, 144 h) of the same molecule?
Answer: 156.5 mm^3

Question: And the “Tumor Volume” value ([6]; 10mg/kg_Capan2, dose every 24 h, 384 h)?
Answer: 177.25 mm^3

Question: What about the “Tumor Volume” value ([6]; 10mg/kg_Capan2, dose every 24 h, 480 h) of the same molecule?
Answer: 157.5 mm^3

Question: What about the “Tumor Volume” value ([6]; 10mg/kg_Capan2, dose every 24 h, 552 h) of the same molecule?
Answer: 152.125 mm^3

Question: And the “Tumor Volume” value ([6]; 25mg/kg_Capan2, dose every 24 h, 0 h (baseline))?
Answer: 166.375 mm^3

Question: And the “Tumor Volume” value ([6]; 25mg/kg_Capan2, dose every 24 h, 48 h)?
Answer: 154.875 mm^3

Question: And the “Tumor Volume” value ([6]; 25mg/kg_Capan2, dose every 24 h, 144 h)?
Answer: 132.75 mm^3

Question: What about the “Tumor Volume” value ([6]; 25mg/kg_Capan2, dose every 24 h, 384 h) of the same molecule?
Answer: 105 mm^3

Question: And the “Tumor Volume” value ([6]; 25mg/kg_Capan2, dose every 24 h, 480 h)?
Answer: 90.25 mm^3

Question: And the “Tumor Volume” value ([6]; 25mg/kg_Capan2, dose every 24 h, 552 h)?
Answer: 86.875 mm^3

Question: And the “Anti-Tumor Activity (% regression)” value ([7]; NCI-H441 (25 mg/kg))?
Answer: 88.0%

Question: And the mean tumor regression ([7]; NCI-H441, 10 mg/kg daily, 4 weeks)?
Answer: 29%

Question: What about the “Tumor Volume” value ([7]; 1mg/kg, 0 h (baseline)) of the same molecule?
Answer: 155.297 mm^3

Question: What about the “Tumor Volume” value ([7]; 1mg/kg, 72 h) of the same molecule?
Answer: 211.748 mm^3

Question: What about the “Tumor Volume” value ([7]; 1mg/kg, 240 h) of the same molecule?
Answer: 488.795 mm^3

Question: What about the “Tumor Volume” value ([7]; 1mg/kg, 336 h) of the same molecule?
Answer: 652.416 mm^3

Question: What about the “Tumor Volume” value ([7]; 1mg/kg, 408 h) of the same molecule?
Answer: 795.041 mm^3

Question: And the “Tumor Volume” value ([7]; 1mg/kg, 504 h)?
Answer: 1190.95 mm^3

Question: What about the “Tumor Volume” value ([7]; 1mg/kg, 576 h) of the same molecule?
Answer: 1534.52 mm^3

Question: And the “Tumor Volume” value ([7]; 1mg/kg, […])?
Answer: 331.176 mm^3

Question: What about the “Tumor Volume” value ([7]; 5mg/kg, 0 h (baseline)) of the same molecule?
Answer: 155.278 mm^3

Question: And the “Tumor Volume” value ([7]; 5mg/kg, 72 h)?
Answer: 132.554 mm^3

Question: And the “Tumor Volume” value ([7]; 5mg/kg, 240 h)?
Answer: 165.633 mm^3

Question: What about the “Tumor Volume” value ([7]; 5mg/kg, 336 h) of the same molecule?
Answer: 208.828 mm^3

Question: And the “Tumor Volume” value ([7]; 5mg/kg, 408 h)?
Answer: 274.14 mm^3

Question: And the “Tumor Volume” value ([7]; 5mg/kg, 504 h)?
Answer: 284.303 mm^3

Question: And the “Tumor Volume” value ([7]; 5mg/kg, 576 h)?
Answer: 324.789 mm^3

Question: And the “Tumor Volume” value ([7]; 5mg/kg, 672 h)?
Answer: 374.96 mm^3

Question: And the “Tumor Volume” value ([7]; 5mg/kg, […])?
Answer: 115.114 mm^3

Question: And the “Tumor Volume” value ([7]; 10mg/kg, 0 h (baseline))?
Answer: 155.355 mm^3

Question: And the “Tumor Volume” value ([7]; 10mg/kg, 72 h)?
Answer: 120.95 mm^3

Question: What about the “Tumor Volume” value ([7]; 10mg/kg, 240 h) of the same molecule?
Answer: 80.5583 mm^3

Question: And the “Tumor Volume” value ([7]; 10mg/kg, 336 h)?
Answer: 79.7939 mm^3

Question: And the “Tumor Volume” value ([7]; 10mg/kg, 408 h)?
Answer: 102.218 mm^3

Question: And the “Tumor Volume” value ([7]; 10mg/kg, 504 h)?
Answer: 74.6022 mm^3

Question: What about the “Tumor Volume” value ([7]; 10mg/kg, 576 h) of the same molecule?
Answer: 87.8761 mm^3

Question: What about the “Tumor Volume” value ([7]; 10mg/kg, 672 h) of the same molecule?
Answer: 105.875 mm^3

Question: What about the “Tumor Volume” value ([7]; 10mg/kg, […]) of the same molecule?
Answer: 91.6508 mm^3

Question: And the “Tumor Volume” value ([7]; 25mg/kg, 0 h (baseline))?
Answer: 155.304 mm^3

Question: What about the “Tumor Volume” value ([7]; 25mg/kg, 72 h) of the same molecule?
Answer: 113.104 mm^3

Question: And the “Tumor Volume” value ([7]; 25mg/kg, 240 h)?
Answer: 58.639 mm^3

Question: And the “Tumor Volume” value ([7]; 25mg/kg, 336 h)?
Answer: 46.9253 mm^3

Question: And the “Tumor Volume” value ([7]; 25mg/kg, 408 h)?
Answer: 36.776 mm^3

Question: What about the “Tumor Volume” value ([7]; 25mg/kg, 504 h) of the same molecule?
Answer: 29.9204 mm^3

Question: What about the “Tumor Volume” value ([7]; 25mg/kg, 576 h) of the same molecule?
Answer: 27.7701 mm^3

Question: And the “Tumor Volume” value ([7]; 25mg/kg, 672 h)?
Answer: 19.397 mm^3

Question: What about the “Tumor Volume” value ([7]; 25mg/kg, […]) of the same molecule?
Answer: 78.2002 mm^3
